Measured values taken from US10561142B2, “Dispersed lactams” (Conopco, Inc., priority 2015, dated 2020).

Assay: Dissolution of lactam / PVP solid dispersion in water (visual, FIG. 1)
Assay type: physicochemical
Details: added to water, amount of lactam equivalent to that in the 1% lactam/PVP solid dispersion
Text: The inventor(s) have shown that solid dispersion of lactam in PVP confers enhanced aqueous solubility to the lactam. […] Note that this example is a proof of concept, and the lactam used was 4-(4-fluorophenyl)-5-methylene-pyrrol-2-one.
Such solid dispersions dissolve rapidly to give clear solutions.

dissolution in water (aqueous solubility): does not dissolve
Structure (SMILES): C=C1NC(=O)C=C1c1ccc(F)cc1 [4-(4-fluorophenyl)-5-methylene-pyrrol-2-one]
